Assay results: ChEMBL document CHEMBL1128253, “Synthesis and anti-HIV-1 activity of 4,5,6,7-tetrahydro-5-methylimidazo-[4,5,1-jk][1,4]benzodiazepin- 2(1H)-one (TlBO) derivatives. 4” (J Med Chem, 1995)
pIC50: −log10 of the molar value.

These compounds were tested on MT4 (assay: Effective concentration of compound required to achieve 50% protection of MT-4 cells against the cytopathic effect of HIV-1). Details: Homo sapiens.
Type: functional, cell-based

SMILES | pIC50
CC(C)=CCN1Cc2cccc3[nH]c(=S)n(c23)C[C@@H]1C | 7.36

What follows are compounds tested on Human immunodeficiency virus 1 (assay: Concentration required for 50% protection of MT-4 cells against the cytopathic effect of HIV-1). Details: Human immunodeficiency virus 1, MT4.
Type: functional, organism-based

SMILES | pIC50
C[C@H]1Cn2c(=O)[nH]c3ccc(N)c(c32)CN1CC1CC1 | 3.07
C[C@H]1Cn2c(=O)[nH]c3cc(N)cc(c32)CN1CC1CC1 | 4.22
CC(=O)Nc1ccc2nc(O)n3c2c1CN(CC1CC1)[C@@H](C)C3 | < 3.10
COc1ccc2c3c1[nH]c(=O)n3C[C@H](C)N(CC=C(C)C)C2 | 5.18
CCc1ccc2nc(O)n3c2c1CN(CC=C(C)C)[C@@H](C)C3 | < 5.23
CC(C)=CCN1Cc2c(C(N)=O)ccc3[nH]c(=O)n(c23)C[C@@H]1C | 5.20
C[C@H]1Cn2c(=O)[nH]c3cc(N(C)C)cc(c32)CN1CC1CC1 | 5.18
CCC(=CCN1Cc2c(C)ncc3nc(S)n(c23)CC1C)CC (stereo unspecified) | 6.61
CCC(=CCN1Cc2c(C)ncc3nc(O)n(c23)CC1C)CC (stereo unspecified) | < 5.70
CC(C)=CCN1Cc2c(I)ccc3[nH]c(=O)n(c23)C[C@@H]1C | 7.06
CCC(=CCN1Cc2cc(C(C)(C)C)cc3nc(O)n(c23)C[C@@H]1C)CC | 6.50
CC(C)=CCN1Cc2cc(C(F)(F)F)cc3nc(S)n(c23)C[C@@H]1C | 6.31
C[C@H]1Cn2c(=O)[nH]c3cc([N+](=O)[O-])cc(c32)CN1CC1CC1 | 4.48
CC(C)=CCN1Cc2c(C#N)ccc3nc(O)n(c23)C[C@@H]1C | 5.94
CC(C)=CCN1Cc2cc(Cl)cc3[nH]c(=S)n(c23)C[C@@H]1C | 7.47
CC(C)=CCN1Cc2cc(Cl)c(Cl)c3nc(S)n(c23)C[C@@H]1C | 7.59
C#Cc1ccc2nc(O)n3c2c1CN(CC=C(C)C)[C@@H](C)C3 | 6.36
C[C@H]1Cn2c(=O)[nH]c3ccc(N(C)C)c(c32)CN1CC1CC1 | 5.18
CSc1ccc2[nH]c(=S)n3c2c1CN(CC=C(C)C)[C@@H](C)C3 | 8.30
CC(C)=CCN1Cc2c(I)ccc3[nH]c(=S)n(c23)C[C@@H]1C | 7.32

SMILES | pIC50
CC(=O)Nc1cc2c3c(c1)[nH]c(=O)n3C[C@H](C)N(CC1CC1)C2 | 3.80
COc1ccc2c3c1[nH]c(=S)n3C[C@H](C)N(CC=C(C)C)C2 | 5.33
CC(C)=CCN1Cc2c(C)ncc3nc(O)n(c23)CC1C (stereo unspecified) | 3.06
CC(C)=CCN1Cc2c(Br)ccc3nc(S)n(c23)C[C@@H]1C | 8.52
Cc1ncc2nc(O)n3c2c1CN(CC1CC1)C(C)C3 (stereo unspecified) | 3.22
CCOc1ccc2[nH]c(=S)n3c2c1CN(CC=C(C)C)[C@@H](C)C3 | 7.02
CC(C)=CCN1Cc2ccc(Br)c3nc(S)n(c23)C[C@@H]1C | 5.97
COc1ccc2[nH]c(=S)n3c2c1CN(CC=C(C)C)[C@@H](C)C3 | 7.47
CC(C)=CCN1Cc2c(F)ccc3nc(S)n(c23)C[C@@H]1C | 8.24
CC(C)=CCN1Cc2c(C=O)ccc3nc(S)n(c23)C[C@@H]1C | 6.73
CC(C)=CCN1Cc2c(C)ccc3nc(O)n(c23)C[C@@H]1C | 6.00
CC(C)=CCN1Cc2c(C#N)ccc3nc(S)n(c23)C[C@@H]1C | 7.25
C#Cc1ccc2nc(S)n3c2c1CN(CC=C(C)C)[C@@H](C)C3 | 7.53
CC(C)=CCN1Cc2c(Br)ccc3nc(O)n(c23)C[C@@H]1C | 7.33
CC(C)=CCN1Cc2cc(F)cc3nc(S)n(c23)C[C@@H]1C | 7.60
CC(C)=CCN1Cc2cc(C(F)(F)F)cc3nc(O)n(c23)C[C@@H]1C | 5.23
CC(C)=CCN1Cc2c(C)ccc3nc(S)n(c23)C[C@@H]1C | 7.87
C[C@H]1Cn2c(=S)[nH]c3cc([N+](=O)[O-])cc(c32)CN1CC1CC1 | 5.61
CC(C)=CCN1Cc2c(Cl)ccc3[nH]c(=S)n(c23)C[C@@H]1C [TIVIRAPINE] | 8.37
Cc1cn([C@H]2C[C@H](N=[N+]=[N-])[C@@H](CO)O2)c(=O)[nH]c1=O [ZIDOVUDINE] | 8.39
